From patent publication US11376252B2, “Multikinase inhibitors and uses in prostatic hyperplasia and urinary track diseases” (AIVIVA BIOPHARMA, INC., priority 2017, dated 2022) come the findings set out here.

Test [1] has as its system testosterone (TE) and phenylephrine (PE) induced benign prostate hyperplasia in rats. Nature of the test: Testosterone (TE) and phenylephrine (PE) induced benign prostate hyperplasia in rats, intra-prostate injection (Example 1). It is filed as in vivo, Male Wistar rats. The conditions noted are these: for glandular hyperplasia as compared to the untreated TE/PE induced prostates: TE/PE induced rats, intra-prostate injection, histology. As for the experimental part:
BPH is a true hyperplastic process. Histologic studies have documented an increase in cell number. A study was conducted, therefore, to determine the effects of test compounds and vehicle on testosterone (TE) and phenylephrine (PE) induced benign prostate hyperplasia in rats. Male Wistar rats were induced with testosterone (2 mg/kg) plus phenylephrine (5 mg/kg) administered daily by subcutaneous injection on days 5 through 32. Vehicle or test compounds (all at 1% w/w), nintedanib, sunitinib, lenvatinib, and 0.5% doxazosin mesylate, were administered by intra-prostate injection (0.4 ml) in dorsolateral and ventral lobes on days 1 and 18. Animals were euthanized on day 32. Body weights were determined and prostate glands were harvested. The experimental design is outlined in Table 1.
At necropsy, the ventral and dorsolateral lobes of the prostate were separated and then cut into halves. The left halves were fixed in 10% neutral buffered formalin, sectioned, and stained with Hematoxylin and Eosin (H&E). Histological changes in these sections were scored. Epithelial hyperplasia was recognized as an increase in epithelial cells within normal-appearing gland profiles, primarily reflected by stratification of epithelial cells and increased presence of epithelial tufting and papillary projections. A severity grade of 0 (not present) through 5 (severe) was assigned to each sample.

Test [2] concerns suture induced fibrosis model in rabbits. The test can be described thus: Suture induced fibrosis model in rabbits (cornea), topical administration (Example 4). It is filed as in vivo. The conditions noted are these: 0.3% w/w topical, three times daily for 10 days, Day 11; for fibroplasia and/or collagen density (histological staining, Masson's trichrome): FIG. 8. As for the experimental part:
A study was conducted to determine the potential beneficial effects of topical administration of test compounds and vehicle in a suture induced fibrosis model in rabbits. Sutures were placed intrastromally, under a microscope, in the cornea of rabbits. In each eye, one 9-0 silk suture was placed, in a vertical position, temporal to the center of the cornea and a second suture was placed nasal to the corneal center. Each suture had two stromal incursions approximately 2 mm from the limbus. Test compounds having a certain spectrum of multikinase inhibition activities, or vehicle, were topically instilled (35 μL/eye) in the eyes three times daily for 10 days following surgery. The treatment groups include vehicle, nintedanib (0.3%, w/w), sorafenib (0.3%, w/w) and lenvatinib (0.3%, w/w). Six left eyes were used per treatment group.
During the in-life phase, gross ocular observations of very slight to moderate conjunctival congestion and swelling were similar among groups, including the vehicle control. The animals were sacrificed on Day 11 and eyes enucleated and dissected for histopathological evaluation.

The subject of test [3] is laser induced choroidal neovascularization. The test can be described thus: Laser induced choroidal neovascularization in rat eyes (Example 5). It is filed as in vivo. The conditions noted are these: Day 22, FIG. 9; for lesion sizes relative to vehicle (fluorescein angiography): topical eyedrop 1%, three times a day Days 2-21. From the text: Increased expression of angiogenic factors, such as VEGF and bFGF, along with increased microvessel density, have been reported in benign prostatic hyperplasia, high grade prostate intraepithelial neoplasia and prostate cancer. […] In this example, the effect of local administration of multikinase inhibitors in a rat model of neovascularization was examined. New vessel growth is regulated by growth factor receptor signaling pathways, the functions of which broadly overlap among organs and tissues. In this study, effects of local administration of the multikinase inhibitors nintedanib and lenvatinib were examined by intravitreal injection or topical application to rat eyes following laser induced choroidal neovascularization. A 22-day study was conducted to determine the effects of test agents, positive control, or vehicle on the development of new vessels. On Day 1, laser treatments were performed on all animals using a 520 nm thermal laser to generate a total of three lesions per eye. On Days 2-21, bilateral topical administration of vehicle, 1% nintedanib, or 1% lenvatinib was performed three times a day. On Day 3, bilateral intravitreal injection of vehicle, 5 μg/eye of rat anti-VEGF antibody, 50 μg/eye of nintedanib, or 50 μg/eye of lenvatinib was performed in a second group of animals. On Day 22, fluorescein angiography was performed on all animals and lesion size/area was determined using image analysis software (ImageJ).

The subject of test [4] is testosterone and/or phenylephrine induced BPH in rats. Nature of the test: Post-induction study in testosterone and/or phenylephrine induced BPH in rats, intra-prostate injection (Example 2). It is filed as in vivo, Male Wistar rats. The note with it: for mean prostate weight/100 g body weight compared to vehicle: TE+PE induced days 1-28; for epithelial hyperplasia score (0 not present through 5 severe), representative image: dorsolateral prostate, FIG. 6. As for the experimental part:
Morphologically, BPH is characterized by the formation of a new architecture through the proliferation of the epithelium in pre-existing ducts. Given that stromal cells serve important paracrine regulatory functions in epithelial cell homeostasis, late stage changes in stromal-epithelial interactions could provide insight into BPH progression. A second study was conducted to determine the therapeutic effects of test compounds and vehicle, post-induction in a protocol using testosterone and/or phenylephrine induced BPH in rats.
Male Wistar rats were induced with testosterone (2 mg/kg) plus phenylephrine (5 mg/kg) administered daily by subcutaneous injection on days 1 through 28. Vehicle or test compounds sorafenib (1% w/w), pirfenidone (2.5% w/w), and riociguat (1% w/w) were administered by intra-prostate injection (0.2 ml) in the dorsolateral lobe on days 15 and 29. Animals were euthanized on day 42. Body weights were determined. Prostate glands were harvested and weighed. The experimental design is outlined in Table 2.
At necropsy, the dorsolateral and ventral lobes of the prostate were separated and cut into halves. The left halves were fixed in 10% neutral buffered formalin, sectioned, and stained with Hematoxylin and Eosin (H&E). Epithelial hyperplasia was recognized as an increase in epithelial cells within normal appearing gland profiles, as reflected in the stratification of epithelial cells and increased presence of epithelial tufting and papillary projections. Stromal changes were examined microscopically. These changes included inflammation and tissue fibroplasia. Each section was given a severity score ranging from 0 (not present) through 5 (severe).

Setting [5] is: dorsolateral prostate, TE and PE induced, intra-prostate injection days 1 and 18, 1% w/w (doxazosin 0.5%), day 32, H&E, FIG. 1.
Where [6] appears, read: ventral prostate, TE and PE induced, intra-prostate injection days 1 and 18, 1% w/w (doxazosin 0.5%), day 32, H&E, FIG. 2.
The mark [7] stands for this setting: intravitreal injection 50 μg/eye on Day 3.
[8] abbreviates: intra-prostate injection days 15 and 29, day 42, FIG. 5.
Setting [9] is: TE+PE induced, intra-prostate injection days 15 and 29, day 42.

“Also recorded” adds a separate entry of the source. Counter-ions that a name gives are not always drawn.

As for `COc1cc2nc(N3CCN(C(=O)C4COc5ccccc5O4)CC3)nc(N)c2cc1OC` (stereo not drawn) [doxazosin, doxazosin mesylate], the “glandular hyperplasia as compared to the untreated TE/PE induced prostates” value in test [1] is listed as “demonstrated reduction of glandular hyperplasia”. In addition, the “epithelial hyperplasia score (severity grade 0 not present through 5 severe), representative image” value in test [1] (setting [5]) and in test [1] (setting [6]) was 3 throughout.

Turning to `COc1cc2nccc(Oc3ccc(NC(=O)NC4CC4)c(Cl)c3)c2cc1C(N)=O` [lenvatinib], the “glandular hyperplasia as compared to the untreated TE/PE induced prostates” value in test [1] was “demonstrated reduction of glandular hyperplasia”. For the same compound, in test [1] (setting [5]), the “epithelial hyperplasia score (severity grade 0 not present through 5 severe), representative image” value was 2. In addition, the “epithelial hyperplasia score (severity grade 0 not present through 5 severe), representative image” value in test [1] (setting [6]) is on record as 3. In test [2], the “alpha SMA staining by immunohistochemical analysis relative to vehicle” value is “significantly reduced alpha SMA staining” and the “fibroplasia and/or collagen density (histological staining, Masson's trichrome)” value was “significantly reduced fibroplasia and/or collagen density”. The “lesion sizes relative to vehicle-treated eyes (fluorescein angiography)” value in test [3] (setting [7]) is given as “significantly reduced lesion sizes”. Further, the “lesion sizes relative to positive control, rat anti-VEGF (fluorescein angiography)” value in test [3] (intravitreal injection 50 μg/eye on Day 3, anti-VEGF 5 μg/eye) was “significantly reduced lesion sizes”. Moreover, in test [3], the “lesion sizes relative to vehicle (fluorescein angiography)” value was “reduced lesion sizes”.

Turning to `COC(=O)c1ccc2c(c1)NC(=O)/C2=C(\Nc1ccc(N(C)C(=O)CN2CCN(C)CC2)cc1)c1ccccc1` [nintedanib], the “glandular hyperplasia as compared to the untreated TE/PE induced prostates” value in test [1] is “demonstrated reduction of glandular hyperplasia”. Also, the “epithelial hyperplasia score (severity grade 0 not present through 5 severe), representative image” value in test [1] (setting [5]) and in test [1] (setting [6]) was 3 in each case. Also, the “alpha SMA staining by immunohistochemical analysis relative to vehicle” value in test [2] was “significantly reduced alpha SMA staining”. For the same compound, the “fibroplasia and/or collagen density (histological staining, Masson's trichrome)” value in test [2] is recorded as “significantly reduced fibroplasia and/or collagen density”. The “lesion sizes relative to vehicle-treated eyes (fluorescein angiography)” value in test [3] (setting [7]) is recorded as “significantly reduced lesion sizes”. For the same compound, in test [3], the “lesion sizes relative to vehicle (fluorescein angiography)” value is reported as “reduced lesion sizes”.

With `Cc1ccc(=O)n(-c2ccccc2)c1` [pirfenidone], the “mean prostate weight/100 g body weight compared to vehicle” value in test [4] (setting [8]) was “did not show a reduction in mean prostate weight”. Moreover, the “epithelial hyperplasia score (0 not present through 5 severe), representative image” value in test [4] (setting [9]) amounted to 1.

Take `COC(=O)N(C)c1c(N)nc(-c2nn(Cc3ccccc3F)c3ncccc23)nc1N` [riociguat]: in test [4] (TE induced rats, 1% w/w intra-prostate), the “effect on prostate volume and histological changes in epithelial hyperplasia” value was “showed an effect on prostate volume and histological changes in epithelial hyperplasia”. Moreover, the “mean prostate weight/100 g body weight compared to vehicle control” value in test [4] (TE induction days 1-28, intra-prostate injection days 15 and 29, day 42, FIG. 5) is “reduced the mean prostate weight”. In addition, the “epithelial hyperplasia score (0 not present through 5 severe), representative image” value in test [4] (TE induced, intra-prostate injection days 15 and 29, day 42) is listed as 1.

`CNC(=O)c1cc(Oc2ccc(NC(=O)Nc3ccc(Cl)c(C(F)(F)F)c3)cc2)ccn1` [sorafenib]: in test [4] (setting [8]), the “mean prostate weight/100 g body weight compared to vehicle” value was “did not show a reduction in mean prostate weight”. Also, the “inhibition of benign prostate hyperplasia / therapeutic effect in the prostate” value in test [4] (TE+PE induced rats, 1% w/w intra-prostate) is on record as “not an effective inhibitor; also recorded: did not show any therapeutic effect”. The “epithelial hyperplasia score (0 not present through 5 severe), representative image” value in test [4] (setting [9]) turned out to be 2. For the same compound, in test [2], the “alpha SMA staining by immunohistochemical analysis relative to vehicle” value is on record as “no effect on alpha SMA” and the “fibroplasia and/or collagen density (histological staining, Masson's trichrome)” value is on record as “little or no effect”.

Take `CCN(CC)CCNC(=O)c1c(C)[nH]c(/C=C2\C(=O)Nc3ccc(F)cc32)c1C` [sunitinib]: the “epithelial hyperplasia score (severity grade 0 not present through 5 severe), representative image” value in test [1] (768 h) and in test [1] (setting [5]) was 3 throughout.
